Measurements: publication PMC8222254, “Self-assembly of an anion receptor with metal-dependent kinase inhibition and potent in vitro anti-cancer properties” (Nature Communications, 2021)
Where “and” joins values, the source holds several entries; their conditions need not be identical. Identical values can stand only once. Like-named read-outs stand apart in the source and are kept apart here.

Assays:
[1] = test system: NP1 adult brain neural progenitor cells; assay: Chemosensitivity, 96 h continuous exposure, MTT assay; type: cell-based, human
How it was run: (§1)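 IC50 is the concentration giving 50% growth reduction, derived from dose-response curves of MTT absorbance at 540 nm. Before dosing, lines were plated at 2 × 10^3 cells/well, GBM1 stem-like cells at 3 × 10^3/well, overnight at 37 °C; compound exposure lasted 96 h without interruption, vehicle 0.2% DMSO.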

[2] = test system: GBM1 glioblastoma cancer stem cell model; assay: as above; type: cell-based, human; conditions: for IC50: GBM1, 96 h, MTT; for Selectivity Index using the NPI non-cancer cell line: IC50 NP1 / IC50 GBM1; for SI (ARPE19): mean IC50 ARPE-19 / mean IC50 GBM1; for SI (MCF10A): mean IC50 MCF10A / mean IC50 GBM1; for SI (NPI): mean IC50 NP1 / mean IC50 GBM1;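 as to SI (NPI): adult human brain neural progenitor non-cancer cells from an epilepsy surgery patient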;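 as to Selectivity Index using the NPI non-cancer cell line: adult human brain neural progenitor non-cancer cells from an epilepsy surgery patient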
How it was run: as §1

[3] = molecular target: recombinant human AMPK (pT172 AMPKα1, pS108 AMPKβ1) (Homo sapiens, UniProt Q13131); assay: In vitro phosphatase assay with recombinant kinase, immunoblotting; type: biochemical; conditions: 50 μM complex, 4 h, with ATP
Experimental: 800 ng of purified recombinant human AMPK (α1β2γ1) or Src kinase (MRC PPU, International Centre for Kinase Profiling, University of Dundee) was incubated with 50 μM [L2Cu3]^6+, [L2Zn3]^6+, or vehicle control in 50 mM Tris HCl pH 7.5 containing 50 μM ATP for 4 h at 37 °C. For [L2Zn3]^6+ time course and concentration titration experiments, 800 ng recombinant human AMPK was used (α1β2γ1 AMPK isoform for pT172 AMPKα1 detection or α2β1γ1 AMPK isoform for pS108 AMPKβ1 detection). For evaluation of ATP dependency and influence of AMP, 50 µM ATP was replaced with 50 µM AMP or omitted. Reactions were stopped by addition of Laemmli’s buffer (Biorad) to 1x and heating at 95 °C for 5 min before analysis by SDS PAGE and immunoblotting for detection of specific phosphorylated amino acids of AMPK and Src proteins.
Protein lysates and recombinant proteins were resolved on 15% SDS polyacrylamide gels. Proteins were electroblotted onto nitrocellulose membrane by wet transfer in 1xTris Glycine buffer (Biorad) at 35 mA overnight at room temperature. After blocking of membranes, these were incubated with primary antibody overnight at 4 °C before addition of rabbit or mouse secondary antibody (HRP-conjugated; 1:5000, Dako P0448 or P0260) for 1 h at room temperature and development of blots by enhanced chemiluminescence. Primary antibodies were: anti-Src (total) (Cell Signalling Technology #2123 1:1000), anti-phosphorylated Src (Y527) (Cell Signalling Technology #21055 1:1000), anti-phosphorylated Src (Y416) (Cell Signalling Technology #69435 1:1000), anti-AMPKα (total) (Cell Signalling Technology #2532 1:1000), anti-phosphorylated AMPKα (T172) (Cell Signalling Technology #2535 1:1000), anti-AMPKβ1 (total) (Cell Signalling Technology #4150 1:1000), anti-phosphorylated AMPKβ1 (S108) (abcam ab156890 1:500), anti-phospho-Tyr (pan) (Cell Signalling Technology #8954 1:2000), anti-p53 (Santa Cruz, DO-1 clone, 1:1000,), anti-phosphorylated LDH-A (Y10) (Cell Signalling Technology #8176 1:1000), anti-LDH-A/B (total) (abcam ab134187 1:5000), anti-β-actin (Merck MAB1501, 1:40,000). Quantification of signals was performed by densitometry using Image J software. Uncropped and unprocessed scans are provided in the Source Data file.

[4] = NP1, 96 h, MTT, individual run, read-out: IC50 values for each replicate
[5] = NP1, 96 h, MTT, mean of at least 3 independent experiments, read-out: Mean IC50
[6] = NP1 non-cancer, read-out: Mean IC50 values
[7] = individual run, read-out: IC50 values for each replicate
[8] = mean of at least 3 independent experiments, read-out: Mean IC50

Chain of recombinant human AMPK (pT172 AMPKα1, pS108 AMPKβ1) (Q13131 whole entry, canonical isoform): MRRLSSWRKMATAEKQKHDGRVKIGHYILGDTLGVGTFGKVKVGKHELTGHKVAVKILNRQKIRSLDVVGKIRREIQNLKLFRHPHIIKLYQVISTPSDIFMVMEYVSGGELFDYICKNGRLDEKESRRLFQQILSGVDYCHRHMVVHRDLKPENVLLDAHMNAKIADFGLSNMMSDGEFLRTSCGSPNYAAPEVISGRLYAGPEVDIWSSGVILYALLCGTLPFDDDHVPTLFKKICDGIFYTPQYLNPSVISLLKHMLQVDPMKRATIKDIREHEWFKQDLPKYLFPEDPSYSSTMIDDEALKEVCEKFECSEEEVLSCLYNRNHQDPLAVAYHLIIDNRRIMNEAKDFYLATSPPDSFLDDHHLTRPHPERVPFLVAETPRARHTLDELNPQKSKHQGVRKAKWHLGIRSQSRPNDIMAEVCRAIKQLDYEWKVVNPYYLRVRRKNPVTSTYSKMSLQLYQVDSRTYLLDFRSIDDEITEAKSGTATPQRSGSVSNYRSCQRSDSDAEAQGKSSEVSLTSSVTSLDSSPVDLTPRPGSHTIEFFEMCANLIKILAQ
Chain of recombinant human AMPK (pT172 AMPKα1, pS108 AMPKβ1) (O43741 whole entry partner, canonical isoform): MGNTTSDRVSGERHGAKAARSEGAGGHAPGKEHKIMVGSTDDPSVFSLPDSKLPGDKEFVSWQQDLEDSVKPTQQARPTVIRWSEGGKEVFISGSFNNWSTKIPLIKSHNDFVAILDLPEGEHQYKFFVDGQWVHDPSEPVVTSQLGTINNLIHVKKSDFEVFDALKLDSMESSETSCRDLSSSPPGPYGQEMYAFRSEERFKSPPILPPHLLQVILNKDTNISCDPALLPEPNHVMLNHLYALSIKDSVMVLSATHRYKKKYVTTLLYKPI
Chain of recombinant human AMPK (pT172 AMPKα1, pS108 AMPKβ1) (P54619 whole entry partner, canonical isoform): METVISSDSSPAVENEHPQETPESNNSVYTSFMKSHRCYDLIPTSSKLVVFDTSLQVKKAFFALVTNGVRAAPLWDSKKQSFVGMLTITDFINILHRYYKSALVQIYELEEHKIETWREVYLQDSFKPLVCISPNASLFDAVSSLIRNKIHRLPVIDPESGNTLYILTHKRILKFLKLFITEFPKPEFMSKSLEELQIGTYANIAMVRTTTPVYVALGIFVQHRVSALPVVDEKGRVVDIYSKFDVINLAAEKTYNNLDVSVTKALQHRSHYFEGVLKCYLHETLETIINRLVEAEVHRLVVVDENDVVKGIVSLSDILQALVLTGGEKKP

| Structure (SMILES) | IC50 [1, 4] | IC50 [1, 5] [µM] | IC50 [1, 6] [µM] | IC50 [2, 7] | IC50 ([2]; mean of at least 3 independent experiments, listed as [L2Cu3]^6+, read-out: Mean IC50) [µM] | IC50 [2, 8] [µM] | Selectivity Index using the NPI non-cancer cell line [2] | SI (ARPE19) [2] | SI (MCF10A) [2] | SI (NPI) [2] | T172P levels of AMPKα detectable by immunoblotting [3] | IC50 ([2]; mean of at least 3 independent experiments, listed as [L2Zn3]^6+, read-out: Mean IC50) [µM] |
| --- | --- | --- | --- | --- | --- | --- | --- | --- | --- | --- | --- | --- |
| [Cu+2].[Cu+2].[Cu+2].c1ccc(-c2csc(NCCN(CCNc3nc(-c4ccccn4)cs3)CCNc3nc(-c4ccccn4)cs3)n2)nc1.c1ccc(-c2csc(NCCN(CCNc3nc(-c4ccccn4)cs3)CCNc3nc(-c4ccccn4)cs3)n2)nc1 [[L2Cu3]6+] | 39.3 µM and 45.1 µM and 44.8 µM | 43.1 | 43.1 | 5.37 µM and 4.48 µM and 5.08 µM | > 1 | 4.97 | 8.67 | 10.59 | 9.71 | 8.67 | significantly reduced | – |
| CC(=O)[O-].CC(=O)[O-].CC(=O)[O-].CC(=O)[O-].CC(=O)[O-].CC(=O)[O-].[Zn+2].[Zn+2].[Zn+2].c1ccc(-c2csc(NCCN(CCNc3nc(-c4ccccn4)cs3)CCNc3nc(-c4ccccn4)cs3)n2)nc1.c1ccc(-c2csc(NCCN(CCNc3nc(-c4ccccn4)cs3)CCNc3nc(-c4ccccn4)cs3)n2)nc1 [[L2Zn3]6+] | 5.77 µM and 8.9 µM and 8.86 µM | 7.78 | 7.78 | 3.23 µM and 4.44 µM and 4.32 µM | – | 4 | 1.95 | 39.31 | 40.41 | 1.95 | significantly reduced | > 1 |
